The data set relates to rodent carcinogenicity bioassays, tumor incidence. The experiment in a line: CCRIS carcinogenicity studies. A digest of the protocol:
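NCI-built, expert-reviewed records of carcinogenicity and related test outcomes (mutagenicity, tumor promotion/inhibition) compiled from published and report sources, historical span 1985-2011, not updated.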

Each structure is given as a SMILES string. Calls of active or inactive are those of the source. The rule behind the calls is not given here.

For the compound `COP(=O)(OC)OC=C(Cl)Cl`, the carcinogen call was “active; positive” (Species: MOUSE, Strain/Sex: B6C3F1/FEMALE, Route: GAVAGE, Dose: 0, 20, 40 MG/KG IN CORN OIL 5 D/WK FOR 103 WK (STUDY DURATION: 104 WK), Dose: 0, 20, 40 MG/KG IN CORN OIL 5 D/WK FOR 103 WK (STUDY DURATION: 104 WK), Tumor Site: Type of Lesion: FORESTOMACH: CARCINOMA, SQUAMOUS CELL PAPILLOMA); “active; positive” (Species: MOUSE, Strain/Sex: B6C3F1/FEMALE, Route: GAVAGE, Dose: 0, 20, 40 MG/KG IN CORN OIL 5 D/WK FOR 103 WK (STUDY DURATION: 105 WK), Dose: 0, 20, 40 MG/KG IN CORN OIL 5 D/WK FOR 103 WK (STUDY DURATION: 105 WK), Tumor Site: Type of Lesion: FORESTOMACH: SQUAMOUS PAPILLOMA, SQUAMOUS CELL PAPILLOMA OR CARCINOMA); “inactive; negative” (Species: MOUSE, Strain/Sex: B6C3F1/FEMALE, Route: ORAL, Dose: 0, 317, 635 PPM IN DIET, TWA, Dose: 0, 317, 635 PPM IN DIET, TWA); “active; positive” (Species: MOUSE, Strain/Sex: B6C3F1/MALE, Route: GAVAGE, Dose: 0, 10, 20 MG/KG IN CORN OIL 5 D/WK FOR 103 WK (STUDY DURATION: 104 WK), Dose: 0, 10, 20 MG/KG IN CORN OIL 5 D/WK FOR 103 WK (STUDY DURATION: 104 WK), Tumor Site: Type of Lesion: FORESTOMACH: SQUAMOUS CELL PAPILLOMA); “active; positive” (Species: MOUSE, Strain/Sex: B6C3F1/MALE, Route: GAVAGE, Dose: 0, 10, 20 MG/KG IN CORN OIL 5 D/WK FOR 103 WK (STUDY DURATION: 105 WK), Dose: 0, 10, 20 MG/KG IN CORN OIL 5 D/WK FOR 103 WK (STUDY DURATION: 105 WK), Tumor Site: Type of Lesion: FORESTOMACH: SQUAMOUS PAPILLOMA); “inactive; negative” (Species: MOUSE, Strain/Sex: B6C3F1/MALE, Route: ORAL, Dose: 0, 317, 635 PPM IN DIET, TWA, Dose: 0, 317, 635 PPM IN DIET, TWA). Also, the carcinogen call (Species: RAT, Strain/Sex: BDIX/BLN/FEMALE, Route: INTRAGASTRIC, Dose: 0, 0.1 MG IN 0.2 ML WATER 2/WK FOR 60 WK (STUDY DURATION: 111 WK)) was “inactive; negative”; the carcinogen call (Species: RAT, Strain/Sex: BDIX/BLN/FEMALE, Route: INTRAGASTRIC, Dose: 0, 0.1 MG IN 0.2 ML WATER 3/WK FOR 60 WK (STUDY DURATION: 111 WK)) is “inactive; negative”; the carcinogen call (Species: RAT, Strain/Sex: BDIX/BLN/MALE, Route: INTRAGASTRIC, Dose: 0, 0.1 MG IN 0.2 ML WATER 2/WK FOR 60 WK (STUDY DURATION: 111 WK)) is “inactive; negative”; the carcinogen call (Species: RAT, Strain/Sex: BDIX/BLN/MALE, Route: INTRAGASTRIC, Dose: 0, 0.1 MG IN 0.2 ML WATER 3/WK FOR 60 WK (STUDY DURATION: 111 WK)) was “inactive; negative”; the carcinogen call (Species: RAT, Strain/Sex: F344/FEMALE, Route: GAVAGE, Dose: 0, 4, 8 MG/KG IN CORN OIL 5 D/WK FOR 103 WK (STUDY DURATION: 104 WK), Dose: 0, 4, 8 MG/KG IN CORN OIL 5 D/WK FOR 103 WK (STUDY DURATION: 104 WK), Tumor Site: Type of Lesion: PANCREAS: ACINAR CELL ADENOMA, HEMATOPOIETIC SYSTEM: MONONUCLEAR CELL LEUKEMIA, MAMMARY GLAND: FIBROADENOMA, CARCINOMA, Tumor Site: Type of Lesion: PANCREAS: ACINAR CELL ADENOMA, HEMATOPOIETIC SYSTEM: MONONUCLEAR CELL LEUKEMIA, MAMMARY GLAND: FIBROADENOMA, CARCINOMA) was “active; positive”; the carcinogen call (Species: RAT, Strain/Sex: F344/FEMALE, Route: GAVAGE, Dose: 0, 4, 8 MG/KG IN CORN OIL 5 D/WK FOR 103 WK (STUDY DURATION: 105 WK), Dose: 0, 4, 8 MG/KG IN CORN OIL 5 D/WK FOR 103 WK (STUDY DURATION: 105 WK), Tumor Site: Type of Lesion: PANCREAS: ADENOMA, MAMMARY GLAND: FIBROADENOMA) was “equivocal”. The carcinogen call reads like this: (Species: RAT, Strain/Sex: F344/MALE, Route: GAVAGE, Dose: 0, 4, 8 MG/KG IN CORN OIL 5 D/WK FOR 103 WK (STUDY DURATION: 104 WK), Dose: 0, 4, 8 MG/KG IN CORN OIL 5 D/WK FOR 103 WK (STUDY DURATION: 104 WK), Tumor Site: Type of Lesion: PANCREAS: ACINAR CELL ADENOMA, HEMATOPOIETIC SYSTEM: MONONUCLEAR CELL LEUKEMIA) “active; positive”; (Species: RAT, Strain/Sex: F344/MALE, Route: GAVAGE, Dose: 0, 4, 8 MG/KG IN CORN OIL 5 D/WK FOR 103 WK (STUDY DURATION: 105 WK), Dose: 0, 4, 8 MG/KG IN CORN OIL 5 D/WK FOR 103 WK (STUDY DURATION: 105 WK), Tumor Site: Type of Lesion: PANCREAS: ADENOMA, HEMATOPOIETIC SYSTEM: MONONUCLEAR CELL LEUKEMIA) “active; positive”; (Species: RAT, Strain/Sex: OSBORNE-MENDEL/FEMALE, Route: ORAL, Dose: 0, 318, 635 PPM IN DIET, TWA, Dose: 0, 318, 635 PPM IN DIET, TWA) “inactive; negative”; (Species: RAT, Strain/Sex: OSBORNE-MENDEL/MALE, Route: ORAL, Dose: 0, 150, 326 PPM IN DIET, TWA, Dose: 0, 150, 326 PPM IN DIET, TWA) “inactive; negative”.

On to `CC(O)CN(CC(C)O)N=O` (stereo not drawn), for which the carcinogen call runs as follows: (Species: HAMSTER, Strain/Sex: SYRIAN/MALE,FEMALE, Route: SUBCUTANEOUS, Dose: 40 MG/KG IN SALINE ONCE, Tumor Site: Type of Lesion: PANCREAS: ADENOMA, ADENOCARCINOMA, INTRADUCTAL CARCINOMA) “active; positive”; (Species: HAMSTER, Strain/Sex: SYRIAN/MALE, Route: SUBCUTANEOUS, Dose: 25, 125, 250 MG/KG 1/WK FOR LIFE, Dose: 25, 125, 250 MG/KG 1/WK FOR LIFE, Tumor Site: Type of Lesion: PANCREAS, NASAL CAVITY, LUNG, LIVER, TRACHEA, LARYNX, Tumor Site: Type of Lesion: PANCREAS, NASAL CAVITY, LUNG, LIVER, TRACHEA, LARYNX) “active; positive”; (Species: HAMSTER, Strain/Sex: SYRIAN/MALE, Route: SUBCUTANEOUS, Dose: 250, 500, 1000 MG/KG IN OLIVE OIL 1/WK FOR 20 WK, Dose: 250, 500, 1000 MG/KG IN OLIVE OIL 1/WK FOR 20 WK, Tumor Site: Type of Lesion: PANCREAS: ADENOCARCINOMA) “active; positive”; (Species: HAMSTER, Strain/Sex: SYRIAN/MALE, Route: SUBCUTANEOUS, Dose: 250 MG/KG IN OLIVE OIL 1/WK FOR 25 WK, Tumor Site: Type of Lesion: PANCREAS: ADENOCARCINOMA) “active; positive”; (Species: MOUSE, Strain/Sex: ICR/FEMALE, Route: SUBCUTANEOUS, Dose: 0, 25, 50, 100 MG/KG BW ONCE ON DAYS 1 AND 8 OF AGE (STUDY DURATION: 50 WK), Dose: 0, 25, 50, 100 MG/KG BW ONCE ON DAYS 1 AND 8 OF AGE (STUDY DURATION: 50 WK), Tumor Site: Type of Lesion: LUNG: TUMOR, LIVER: TUMOR) “active; positive”; (Species: MOUSE, Strain/Sex: ICR/MALE, Route: SUBCUTANEOUS, Dose: 0, 25, 50, 100 MG/KG BW ONCE ON DAYS 1 AND 8 OF AGE (STUDY DURATION: 50 WK), Dose: 0, 25, 50, 100 MG/KG BW ONCE ON DAYS 1 AND 8 OF AGE (STUDY DURATION: 50 WK), Tumor Site: Type of Lesion: LUNG: TUMOR, LIVER: TUMOR) “active; positive”. The carcinogen call was “active; positive” (Species: MOUSE, Strain/Sex: STRAIN-DD/MALE, Route: ORAL, Dose: 100, 250, 500, 1000 PPM IN DRINKING WATER (DAILY INTAKE: 6.3-34.2 MG), Dose: 100, 250, 500, 1000 PPM IN DRINKING WATER (DAILY INTAKE: 6.3-34.2 MG), Tumor Site: Type of Lesion: LUNG: ADENOMA, ADENOCARCINOMA, LIVER: HEMANGIOMA, HEMANGIOENDOTHELIOMA, HEMANGIOENDOTHELIAL SARCOMA); “active; positive” (Species: RAT, Strain/Sex: SPRAGUE-DAWLEY/FEMALE, Route: ORAL, Dose: 106 MG/L IN DRINKING WATER 5 DAY/WK FOR 30 WK (TOTAL DOSE: 318 MG), Tumor Site: Type of Lesion: LIVER: HEPATOCELLULAR CARCINOMA, CHOLANGIOCARCINOMA, HEMANGIOENDOTHELIAL SARCOMA); “active; positive” (Species: RAT, Strain/Sex: SPRAGUE-DAWLEY/FEMALE, Route: ORAL, Dose: 108 MG/L IN DRINKING WATER 5 DAY/WK FOR 50 WK (TOTAL DOSE 540 MG), Tumor Site: Type of Lesion: NASAL TURBINATES: ADENOCARCINOMA, SQUAMOUS CELL CARCINOMA); “active; positive” (Species: RAT, Strain/Sex: WISTAR/MALE, Route: INTRAPERITONEAL, Dose: 3, 4 G/KG ONCE, Tumor Site: Type of Lesion: LUNG: ADENOMA, ADENOCARCINOMA); “active; positive” (Species: RAT, Strain/Sex: WISTAR/MALE, Route: ORAL, Dose: 100, 500 PPM IN DRINKING WATER FOR 25 WK, Tumor Site: Type of Lesion: LUNG: ADENOMA, ADENOCARCINOMA, SQUAMOUS CELL CARCINOMA); “active; positive” (Species: RAT, Strain/Sex: WISTAR/MALE, Route: ORAL, Dose: 100, 500 PPM IN DRINKING WATER FOR 52 WK, Tumor Site: Type of Lesion: LUNG: ADENOMA, ADENOCARCINOMA, SQUAMOUS CELL CARCINOMA, LIVER: HEMANGIOMA, HEPATOCELLULAR CARCINOMA).

Values taken from PubChem BioAssay AID1259411 (Chemical Carcinogenesis Research Information System (CCRIS), 2018).
